How the values were obtained:
[1] = NO release rate measured with a Sievers 280i nitric oxide analyzer; assay type: physicochemical
Description: NO release rates were measured using a Sievers 280i nitric oxide analyzer (GE Instruments, Boulder, CO). Samples were dispersed in 5 mL tryptic soy broth (TSB) or MH 14% w/v in TSB at room temperature. Release kinetics were analyzed using Sievers NOAnalysis software (GE Instruments) with 12 measurements per minute recorded for 280 total minutes.

[2] = test system: Pseudomonas aeruginosa planktonic isolates (PA1 strain); test: Colony forming unit (CFU) assay, titration of nitrite dose with MH; assay type: cell-based; settings: PA1, 6 hours at 37° C.; MH or nitrite (10 mM) alone
Description: An overnight-grown culture of the PA1 strain in TSB was diluted to 10^8 cells/mL based on McFarland equivalence turbidity standard No. 0.5 (Thermo Fisher Scientific) and then adjusted to 10^5 cells/mL in TSB. Suspensions were treated with MH, nitrite, and serial dilutions of nitrite from 10 mM to 1 μM combined with MH. Untreated bacteria were used as negative controls. Bacterial suspensions were mixed using a tube rotator to ensure uniform distribution of bacteria and then incubated at 37° C. for 6 hours. Suspensions were then diluted in PBS and plated on TSA. Bacterial viability was determined by counting the number of colonies established on an agar plate after overnight incubation at 37° C.

[3] = test system: Pseudomonas aeruginosa biofilm, PA1 strain; test: Biofilm viability and volume by live/dead staining and CLSM, PA1 strain; assay type: cell-based; settings: 6 hours, MH 14% w/v, nitrite 10 mM
Description: (§1) A culture of PA, grown overnight in TSB, was diluted to 10^8 cells/mL. The bacterial suspension was then adjusted to 10^5 cells/mL in TSB and inoculated into an 8 well LabTek II Chambered #15 Coverglass System (Thermo Fisher Scientific). The chamber system was incubated at 37° C. for 48 hours. The media was replenished after 24 hours to maintain bacterial viability.
(§2) Established biofilms were divided into four treatment groups: 1) negative control with untreated bacterial suspension, 2) MH, 3) nitrite (10 mM), and 4) MH administered with nitrite (10 mM). Bacteria were treated with the appropriate treatment solution, as above, for 6 hours under complete darkness at 37° C. followed by washing with PBS. Staining was performed using the BacLight LIVE/DEAD Bacterial Viability kit (Invitrogen, Carlsbad, CA). The LIVE/DEAD kit solution constituting Syto9 and propidium iodide was then applied to each well of the chamber slide system for 1 hour at room temperature in darkness. After incubation, each sample was rinsed with PBS and incubated in 10% buffered formalin for 20 minutes at room temperature in darkness. […]
(§3) Images of biofilms were taken using a TCS SP5 CLSM (Leica Microsystems, Wetzlar, Germany) configured to a 488-nm argon laser with a 63× objective. […] Volocity software (PerkinElmer, Waltham, MA) was used to quantify biofilm viability and biomass in each Z-stack.

[4] = test system: Pseudomonas aeruginosa biofilm, ATCC 15692 strain; test: Biofilm viability and volume by live/dead staining and CLSM, ATCC 15692 strain; settings: ATCC 15692 biofilm, 6 hours; MH 14% w/v, nitrite 10 mM, SNO-MP/B-MP 10 mg/mL
Description: as §1, §2, §3

[5] = over 280 minutes, nitrite 5 mM, MH 14% w/v, SNO-MP and blank-MP 5 mg/mL, TSB, room temperature

Compound: O=NO [nitrite, sodium nitrite]
- NO release curve, key points in words (FIG. 1) ([1]; 280 minutes, neutral pH, nitrite 5 mM, MH 14% w/v, SNO-MP 5 mg/mL): no NO production
- NO detected ([1]; nitrite 5 mM in tryptic soy broth, room temperature): less than 0.1 ppm
- NO release, mean [1, 5]: 0.004±0.001 ppm
- NO release, range [1, 5]: 0.003-0.009 ppm
- reduction in CFU versus controls [2]: did not have a significant effect
- reduction in biofilm volume relative to control ([3]; SNO-MP 10 mg/mL): 43.9%
- reduction in live cells (cell viability) relative to control ([3]; SNO-MP/B-MP 10 mg/mL): did not significantly reduce
- reduction in live cells (cell viability) relative to control [4]: did not significantly reduce
